The values below come from ChEMBL document CHEMBL3886378, “Heterocyclic sulfone mGluR4 allosteric potentiators, compositions, and methods of treating neurological dysfunction” (2015).

As a reminder, the EC50 is the concentration giving half of the maximal effect.

Bounds are passed on as bounds.

For this test, the target named is Metabotropic glutamate receptor 4 (Homo sapiens, UniProt Q14833). Briefly: Receptor Activity Assay: The disclosed compounds and compositions can be evaluated for their ability to act as a potentiator of metabotropic glutamate receptor activity, in particular mGluR4 activity, by any suitable known methodology known in the art. For example, Chinese Hamster Ovary (CHO) cells transfected with human mGluR4 or HEK cells co-transfected with rat mGluR4 and the G-protein regulated Inwardly Rectifying Potassium channel (GIRK) were plated in clear bottom assay plates for assay in a Hamamatsu FDSS Fluorometric Plate Reader. The cells were loaded with either a Ca2+-sensitive fluorescent dye or the thallium responsive dye and the plates were washed and placed into a suitable kinetic plate reader. For human mGluR4 assays, a fluorescence baseline was established for 3-5 seconds, the disclosed compounds were then added to the cells, and the response in cells was measured. The format is functional, cell-based, HEK293.
Chain of Metabotropic glutamate receptor 4 (Q14833 whole entry): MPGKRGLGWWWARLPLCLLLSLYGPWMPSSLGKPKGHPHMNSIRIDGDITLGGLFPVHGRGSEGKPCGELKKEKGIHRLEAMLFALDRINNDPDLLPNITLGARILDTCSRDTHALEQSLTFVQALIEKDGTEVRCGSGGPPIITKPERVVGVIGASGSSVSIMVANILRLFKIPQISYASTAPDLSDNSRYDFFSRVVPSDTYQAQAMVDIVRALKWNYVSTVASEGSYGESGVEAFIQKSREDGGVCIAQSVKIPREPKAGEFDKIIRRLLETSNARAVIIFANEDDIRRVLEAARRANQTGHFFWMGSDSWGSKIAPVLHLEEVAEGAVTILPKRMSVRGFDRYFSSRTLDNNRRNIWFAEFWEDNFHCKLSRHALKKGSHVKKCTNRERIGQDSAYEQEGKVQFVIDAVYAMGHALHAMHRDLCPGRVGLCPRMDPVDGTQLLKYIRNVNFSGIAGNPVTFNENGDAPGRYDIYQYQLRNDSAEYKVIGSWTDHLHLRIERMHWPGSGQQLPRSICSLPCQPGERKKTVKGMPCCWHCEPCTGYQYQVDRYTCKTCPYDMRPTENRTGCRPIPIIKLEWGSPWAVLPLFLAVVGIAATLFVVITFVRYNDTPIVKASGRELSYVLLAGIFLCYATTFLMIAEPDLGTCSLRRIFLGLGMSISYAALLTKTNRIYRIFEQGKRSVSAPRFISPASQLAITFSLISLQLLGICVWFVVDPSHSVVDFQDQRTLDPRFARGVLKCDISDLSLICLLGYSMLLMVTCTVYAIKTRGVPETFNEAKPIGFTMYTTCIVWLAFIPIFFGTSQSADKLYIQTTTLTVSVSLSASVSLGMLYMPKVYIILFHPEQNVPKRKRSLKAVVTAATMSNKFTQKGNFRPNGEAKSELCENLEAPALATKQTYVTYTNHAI
As to `Cc1ccc(S(=O)(=O)c2sc(NC(=O)c3ccccn3)nc2C)cc1`, the concentration for a half-maximal effect (EC50) worked out at 1610 nM.
With `O=C(Nc1nc(C(F)(F)F)c(S(=O)(=O)Cc2ccc(F)cc2F)s1)c1ccccn1`, the concentration for a half-maximal effect (EC50) turned out to be 1730 nM.
To `CCc1nc(NC(=O)c2ccccn2)sc1S(=O)(=O)Cc1cccc(Cl)c1F` belongs 488 nM.
`CC(C)c1nc(NC(=O)c2ccccn2)sc1S(=O)(=O)Cc1ccc(Cl)cc1F`: the half-maximal effective concentration (EC50) was 2930 nM.
To `CC(C)c1nc(NC(=O)c2ccccn2)sc1S(=O)(=O)Cc1c(F)cccc1F` belongs 316 nM; to `Cc1nc(NC(=O)c2ccccn2)sc1S(=O)(=O)Cc1ccc(Cl)cc1`, 486 nM.
As to `Cc1ccc(CS(=O)(=O)c2sc(NC(=O)c3ccccn3)nc2C)cc1`, the EC50 came out at 445 nM.
To `COc1ccc(CS(=O)(=O)c2sc(NC(=O)c3ccccn3)nc2C)cc1` belongs 1960 nM; to `Cc1nc(NC(=O)c2ccccn2)sc1S(=O)(=O)C(C)c1ccccc1Cl` (stereo not given), 3230 nM; to `CCc1nc(NC(=O)c2ccccn2)sc1S(=O)(=O)Cc1ccc(Cl)cc1Cl`, 939 nM.
Under `O=C(Nc1nc(C(F)(F)F)c(S(=O)(=O)Cc2ccc(Cl)cc2Cl)s1)c1ccccn1` stands 497 nM; under `Cc1nc(NC(=O)c2ccccn2)sc1S(=O)(=O)Cc1ccc(F)c(F)c1`, 937 nM; under `Cc1nc(NC(=O)c2ccccn2)sc1S(=O)(=O)Cc1ccc(Cl)cc1Cl`, 289 nM.
For `CCc1nc(NC(=O)c2ccccn2)sc1S(=O)(=O)Cc1c(F)cccc1Cl`, the EC50 is 141 nM.
`O=C(Nc1nc(C(F)(F)F)c(S(=O)(=O)Cc2ccccc2F)s1)c1ccccn1`: the EC50 turned out to be 401 nM.
`Cc1nc(NC(=O)c2ccccn2)sc1S(=O)(=O)Cc1ccc(F)cc1`: the 50% effective concentration (EC50) stood at 1510 nM.
Turning to `O=C(Nc1nnc(S(=O)(=O)Cc2ccccc2)s1)c1ccccn1`, the EC50 is more than 10000 nM.
Consider `O=C(Nc1ncc(S(=O)(=O)Cc2ccc(Cl)cc2Cl)s1)c1ccccn1`, for which the EC50 was 49.9 nM.
In the case of `CC(C)c1nc(NC(=O)c2ccccn2)sc1S(=O)(=O)C(C)c1ccccc1Cl` (stereo not given), the EC50 is 3750 nM.
Under `Cc1nc(NC(=O)c2ccccn2)sc1S(=O)(=O)Cc1cccc(Cl)c1F` stands 535 nM; under `Cc1nc(NC(=O)c2ccccn2)sc1S(=O)(=O)Cc1ccc(F)cc1F`, 1010 nM.
To `O=C(Nc1nc(C(F)(F)F)c(S(=O)(=O)Cc2c(F)cccc2F)s1)c1ccccn1` belongs 1060 nM; to `Cc1nc(NC(=O)c2ccccn2)sc1S(=O)(=O)C(C)c1ccccc1F` (stereo not given), 4780 nM.
To `O=C(Nc1nc(C2CC2)c(S(=O)(=O)Cc2ccc(F)cc2F)s1)c1ccccn1` belongs 1050 nM; to `Cc1nc(NC(=O)c2ccccn2)sc1S(=O)(=O)Cc1ccc(F)c(Cl)c1`, 2350 nM; to `O=C(Nc1ncc(S(=O)(=O)Cc2ccccc2F)s1)c1ccccn1`, 398 nM.
In the case of `O=C(Nc1ncc(S(=O)(=O)Cc2ccc(Cl)cc2F)s1)c1ccccn1`, the EC50 amounted to 44.1 nM.
Under `O=C(Nc1ncc(S(=O)(=O)Cc2ccccc2Cl)s1)c1ccccn1` stands more than 10000 nM.
For the molecule `CC(C)c1nc(NC(=O)c2ccccn2)sc1S(=O)(=O)Cc1ccc(F)cc1F`, the EC50 was determined as 3110 nM.
With `CCc1nc(NC(=O)c2ccccn2)sc1S(=O)(=O)Cc1c(C)cc(C)cc1C`, the EC50 was 354 nM.
As to `CCc1nc(NC(=O)c2ccccn2)sc1S(=O)(=O)Cc1ccc(C)cc1`, the EC50 came out at 450 nM.
In the case of `CC(C)c1nc(NC(=O)c2ccccn2)sc1S(=O)(=O)Cc1ccccc1F`, the EC50 was 3660 nM.
With `Cc1cccc(S(=O)(=O)c2sc(NC(=O)c3ccccn3)nc2C)c1`, the EC50 amounted to 6970 nM.
Under `O=C(Nc1nc(C(F)(F)F)c(S(=O)(=O)Cc2ccccc2Cl)s1)c1ccccn1` stands 271 nM; under `Cc1nc(NC(=O)c2ccccn2)sc1S(=O)(=O)Cc1ccc(Cl)cc1F`, 255 nM.
Consider `O=C(Nc1ncc(SCc2ccc(Cl)cc2Cl)s1)c1ccccn1`, for which the 50% effective concentration (EC50) stood at 5000 nM.
Under `Cc1nc(NC(=O)c2ccccn2)sc1S(=O)(=O)Cc1ccc(C(C)C)cc1` stands 1050 nM.
Under `O=C(Nc1nc(C2CC2)c(S(=O)(=O)Cc2ccc(Cl)cc2F)s1)c1ccccn1` stands 1290 nM; under `Cc1ccccc1CS(=O)(=O)c1sc(NC(=O)c2ccccn2)nc1C`, 709 nM; under `CC(C)c1nc(NC(=O)c2ccccn2)sc1S(=O)(=O)Cc1ccc(Cl)cc1Cl`, 3300 nM.
For `O=C(Nc1nc(C2CC2)c(S(=O)(=O)Cc2ccccc2Cl)s1)c1ccccn1`, the EC50 was determined as 2980 nM.
Regarding `Cc1nc(NC(=O)c2ccccn2)sc1S(=O)(=O)Cc1c(F)cccc1F`, the half-maximal effective concentration (EC50) turned out to be 312 nM.
To `O=C(Nc1nc(C(F)(F)F)c(S(=O)(=O)Cc2ccc(Cl)cc2F)s1)c1ccccn1` belongs 181 nM; to `CC(C)c1nc(NC(=O)c2ccccn2)sc1S(=O)(=O)C(C)c1ccccc1F` (stereo not given), 9570 nM; to `Cc1nc(NC(=O)c2ccccn2)sc1S(=O)(=O)Cc1cccc(Cl)c1`, 1390 nM.
`CCc1nc(NC(=O)c2ccccn2)sc1S(=O)(=O)Cc1ccc(Cl)cc1F`: the EC50 turned out to be 294 nM.
For `Cc1nc(NC(=O)c2ccccn2)sc1S(=O)(=O)Cc1cc(F)ccc1F`, the EC50 was 1070 nM.
Under `Cc1nc(NC(=O)c2ccccn2)sc1S(=O)(=O)Cc1c(Cl)cccc1Cl` stands 117 nM; under `CC(C)c1nc(NC(=O)c2ccccn2)sc1S(=O)(=O)Cc1ccccc1Cl`, 1950 nM.
To `O=C(Nc1nc(CO)c(S(=O)(=O)Cc2c(F)cccc2F)s1)c1ccccn1` belongs 8810 nM; to `Cc1nc(NC(=O)c2ccccn2)sc1S(=O)(=O)Cc1c(F)cccc1Cl`, 192 nM.
Under `O=C(Nc1ncc(SCc2ccc(Cl)cc2F)s1)c1ccccn1` stands 8240 nM.
Take `O=C(Nc1nc(CF)c(S(=O)(=O)Cc2c(F)cccc2F)s1)c1ccccn1`: the concentration giving a half-maximal response (EC50) worked out at 463 nM.
Consider `CCc1nc(NC(=O)c2ccccn2)sc1S(=O)(=O)Cc1c(Cl)cccc1Cl`, for which the concentration giving a half-maximal response (EC50) was 88 nM.
Regarding `O=C(Nc1ncc(S(=O)(=O)Cc2c(F)cccc2F)s1)c1ccccn1`, the EC50 amounted to 170 nM.
To `O=C(Nc1nc(C2CC2)c(S(=O)(=O)Cc2ccc(Cl)cc2Cl)s1)c1ccccn1` belongs more than 10000 nM; to `CCc1nc(NC(=O)c2ccccn2)sc1S(=O)(=O)Cc1c(F)cccc1F`, 139 nM; to `Cc1nc(NC(=O)c2ccccn2)sc1S(=O)(=O)Cc1cc(F)c(F)cc1F`, 322 nM.
Under `O=C(Nc1nc(C(F)F)c(S(=O)(=O)Cc2c(F)cccc2F)s1)c1ccccn1` stands 683 nM; under `Cc1nc(NC(=O)c2ccccn2)sc1S(=O)(=O)Cc1cccc(C(F)(F)F)c1`, 2460 nM; under `Cc1nc(NC(=O)c2ccccn2)sc1S(=O)(=O)Cc1ccccc1C(F)(F)F`, 1020 nM.
With `Cc1nc(NC(=O)c2ccccn2)sc1S(=O)(=O)Cc1ccccc1F`, the EC50 was 1330 nM.
Under `O=C(Nc1nc(C2CC2)c(S(=O)(=O)Cc2c(F)cccc2F)s1)c1ccccn1` stands more than 10000 nM; under `O=C(Nc1nc(C2CC2)c(S(=O)(=O)Cc2ccccc2F)s1)c1ccccn1`, 249 nM; under `Cc1nc(NC(=O)c2ccccn2)sc1S(=O)(=O)Cc1ccccc1Cl`, 504 nM.
